From patent publication US8653138B2, “Calcium salts of compounds as anti-inflammatory, immunomodulatory and anti-proliferatory agents” (4SC MG, priority 2010, dated 2014)
≈ marks a conversion by molar mass, not a printed value. Where a name gives a salt, the structure may show the parent alone.

Legend:
[1] = Dynamic vapor sorption (DVS); format: physicochemical
Description: DVS (SMS): Surface Measurement Systems Ltd. DVS-1 water vapour sorption analyzer. The sample is placed on a platinum sample pan and allowed to equilibrate at a given relative humidity (r.h.), usually 50% r.h. Then, a pre-defined humidity program was started with a scanning rate of 5% r.h. change per hour. First step: from 50% r.h. to 0% r.h, (in case of a possibly hydrate as starting material 50 to 95% r.h.), second step: from 0% to 95% r.h. (in case of a possibly hydrate as starting material 95 to 0% r.h.)

[2] = Aqueous solubility (OECD Guideline 105); format: physicochemical; settings: water, 24 h at 23° C., HPLC-UV
Experimental: Aqueous solubilities of Vidofludimus free acid (2-(3-Fluoro-3′-methoxybiphenyl-4-ylcarbamoyl)-cyclopent-1-enecarboxylic acid), its potassium salt and its Calcium salt were examined. The principle of the method was based on the OECD Guideline for the testing of chemicals, 105 “Water Solubility”. 2 mg of the experimental compounds were weighed into Eppendorf vials of 1.5 ml. Subsequently, water was added to arrive at a concentration of 5 mg/ml. After preparation of the solubility samples they were incubated for 24 h at 23° C. under continuous shaking. Then the samples were centrifuged to separate the precipitate from the dissolved compound. The supernatants were transferred into labelled HPLC vials for quantification by HPLC-UV. Finally, these HPLC samples were analysed on the HPLC-UV System and their contents were calculated from the calibration curves, The concentration of compound in the supernatant equals its solubility in water. The following aqueous solubilities were found for Vidofludimus free acid and its potassium-and calcium salt: […]

recombinant human DHODH = target: T1, recombinant human DHODH (Homo sapiens, UniProt Q02127); experiment: Inhibition assay of DHODH activity, human enzyme; format: biochemical; settings: class symbol (head prints μM, key in nM)
T1 construct: provided by Prof; M. Löffler, Marburg, Germany (gift, not a commercial vendor)
T1 sequence (Q02127 whole entry): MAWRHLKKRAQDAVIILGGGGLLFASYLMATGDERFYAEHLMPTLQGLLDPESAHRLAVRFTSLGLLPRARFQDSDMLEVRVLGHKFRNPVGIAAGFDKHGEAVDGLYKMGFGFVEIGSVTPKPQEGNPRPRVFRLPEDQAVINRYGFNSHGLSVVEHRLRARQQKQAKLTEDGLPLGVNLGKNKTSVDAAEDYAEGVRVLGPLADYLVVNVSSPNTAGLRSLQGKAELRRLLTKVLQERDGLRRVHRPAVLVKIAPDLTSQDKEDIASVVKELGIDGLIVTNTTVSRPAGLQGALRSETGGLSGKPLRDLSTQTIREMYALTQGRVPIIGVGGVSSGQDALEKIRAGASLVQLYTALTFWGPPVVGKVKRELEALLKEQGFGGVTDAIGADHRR
Experimental: The standard assay mixture contained 50 μM decyclo ubichinone, 100 μM dihydroorotate, 60 μM 2,6-dichloroindophenol, as well as 20 mU DHODH. The volume activity of the recombinant enzyme used was 30 U/ml. Measurements were conducted in 50 mM TrisHCl (150 mM KCl, 0.1% Triton X-100, pH 8.0) at 30° C. in a final volume of 1 ml. The components were mixed, and the reaction was started by adding dihydroorotate. The course of reaction was followed by spectrophotometrically measuring the decrease in absorption at 600 nm for 2 min.
Inhibitory studies were conducted in a standard assay with additional variable amounts of inhibitor.
These investigations were carried out with recombinant human as well as with recombinant murine DHODH provided by Prof. M. Löffler, Marburg, Germany [M. Löffler, Chem. Biol. Interact.

Row | SMILES | Solubility [2] | IC50 (recombinant human DHODH) | further results
1 | COc1cccc(-c2ccc(NC(=O)C3=C(C(=O)O)CCC3)c(F)c2)c1 [Calcium salt, calcium salt of 2-(3-Fluoro-3′-methoxy-biphenyl-4-ylcarbamoyl)-cyclopent-1-enecarboxylic acid] | 16.2 µg/mL | – | water uptake ([1]; at 95% r.h. (not reversible)): 0.4%; water uptake ([1]; at about 85% r.h., after desolvation): 0.3%
2 | COc1cccc(-c2ccc(NC(=O)C3=C(C(=O)O)CCC3)c(F)c2)c1 [Compound 26, 2-((3-fluoro-3′-methoxy-[1,1′-biphenyl]-4-yl)carbamoyl)cyclopent-1-enecarboxylic acid] | – | – | Solubility ([2]; listed as Vidofludimus free acid): 9.5 µg/mL (≈ 26.7 µM)
3 | COc1cccc(-c2ccc(NC(=O)C3=C(C(=O)O)CCC3)c(F)c2)c1 [Potassium salt] | 4700 µg/mL | – | –
4 | COc1cc(-c2ccccc2)ccc1NC(=O)C1=C(C(=O)O)CCC1 [Compound 33, 2-((3-methoxy-[1,1′-biphenyl]-4-yl)carbamoyl)cyclopent-1-enecarboxylic acid] | – | < 0.8 µM | –
5 | COc1ccc(-c2ccc(NC(=O)C3=C(C(=O)O)CCC3)c(OC)c2)c(OC)c1 [Compound 37, 2-((2′,3,4′-trimethoxy-[1,1′-biphenyl]-4-yl)carbamoyl)cyclopent-1-enecarboxylic acid] | – | < 0.8 µM | –
